Measured values published in patent publication US12122763B2, “Substituted piperidines for androgen receptor degradation” (UBIX THERAPEUTICS, INC., priority 2020, dated 2024).

What was measured:
Format in all cases: cell-based
[1] = biological target: T1, Androgen Receptor (AR) protein (Homo sapiens, UniProt P10275, T878A); experiment: Androgen Receptor (AR) protein degradation assay in LNCaP cells, western blotting; details: 20 h; for inhibition at 0.01 µM: 0.01 μM compound; for inhibition at 0.1 µM: 0.1 μM compound; for inhibition at 1 µM: 1 μM compound; for inhibition at 10 µM: 10 μM compound
T1 construct: endogenous in cells; host or cells: LNCaP
T1 sequence (P10275 whole entry T878A): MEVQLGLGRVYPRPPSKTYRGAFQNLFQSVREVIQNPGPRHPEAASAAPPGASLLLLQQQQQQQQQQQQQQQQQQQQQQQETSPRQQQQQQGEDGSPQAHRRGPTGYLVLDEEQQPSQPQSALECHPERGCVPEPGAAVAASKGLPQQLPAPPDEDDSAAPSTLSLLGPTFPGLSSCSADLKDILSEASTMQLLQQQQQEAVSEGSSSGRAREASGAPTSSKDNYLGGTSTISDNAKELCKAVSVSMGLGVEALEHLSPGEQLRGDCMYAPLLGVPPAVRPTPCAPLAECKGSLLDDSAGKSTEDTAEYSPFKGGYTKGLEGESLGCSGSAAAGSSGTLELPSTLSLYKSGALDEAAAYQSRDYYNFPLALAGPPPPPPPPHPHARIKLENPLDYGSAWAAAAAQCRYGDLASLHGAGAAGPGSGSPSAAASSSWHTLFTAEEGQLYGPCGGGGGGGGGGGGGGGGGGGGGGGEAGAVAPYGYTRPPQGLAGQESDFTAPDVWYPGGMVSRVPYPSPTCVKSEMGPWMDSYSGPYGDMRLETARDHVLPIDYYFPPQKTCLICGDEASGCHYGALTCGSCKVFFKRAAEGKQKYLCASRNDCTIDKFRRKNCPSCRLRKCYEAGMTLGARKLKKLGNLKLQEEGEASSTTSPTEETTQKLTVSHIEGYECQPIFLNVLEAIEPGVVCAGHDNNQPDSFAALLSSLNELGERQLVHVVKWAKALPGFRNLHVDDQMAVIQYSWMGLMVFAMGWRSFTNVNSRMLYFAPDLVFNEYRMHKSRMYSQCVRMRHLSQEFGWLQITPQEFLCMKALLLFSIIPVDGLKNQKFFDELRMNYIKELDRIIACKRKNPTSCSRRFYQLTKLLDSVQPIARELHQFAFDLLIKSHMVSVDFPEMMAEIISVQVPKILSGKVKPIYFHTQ
T1 sequence (Q96SW2 whole entry partner): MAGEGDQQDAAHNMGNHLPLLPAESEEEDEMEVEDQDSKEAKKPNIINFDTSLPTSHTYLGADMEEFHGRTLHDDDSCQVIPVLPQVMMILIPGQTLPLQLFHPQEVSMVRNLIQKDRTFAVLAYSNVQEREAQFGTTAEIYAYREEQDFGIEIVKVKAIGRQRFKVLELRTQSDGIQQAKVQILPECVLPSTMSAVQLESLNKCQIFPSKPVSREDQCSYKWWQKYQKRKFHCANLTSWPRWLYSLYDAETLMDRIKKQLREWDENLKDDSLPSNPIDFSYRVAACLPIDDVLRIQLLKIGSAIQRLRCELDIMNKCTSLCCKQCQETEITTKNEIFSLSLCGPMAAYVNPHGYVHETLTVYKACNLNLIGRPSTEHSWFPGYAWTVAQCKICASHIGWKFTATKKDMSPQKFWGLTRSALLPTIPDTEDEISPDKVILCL
How it was run: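 LNCaP prostate cancer cells were cultured 3 days, then treated with compound for 20 h. Lysates in 1% SDS buffer were normalised by BCA, and 8 μg protein was run on 4–12% Bis-Tris gels. AR was immunoblotted with chemiluminescence, using GAPDH/β-actin as loading controls.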

[2] = biological target: T2, AR-V7 (Homo sapiens, UniProt P10275); experiment: Reduction of expression of AR splicing variant AR-V7; details: at a concentration of 100 nM
T2 sequence (P10275 1-644 isoform P10275-3): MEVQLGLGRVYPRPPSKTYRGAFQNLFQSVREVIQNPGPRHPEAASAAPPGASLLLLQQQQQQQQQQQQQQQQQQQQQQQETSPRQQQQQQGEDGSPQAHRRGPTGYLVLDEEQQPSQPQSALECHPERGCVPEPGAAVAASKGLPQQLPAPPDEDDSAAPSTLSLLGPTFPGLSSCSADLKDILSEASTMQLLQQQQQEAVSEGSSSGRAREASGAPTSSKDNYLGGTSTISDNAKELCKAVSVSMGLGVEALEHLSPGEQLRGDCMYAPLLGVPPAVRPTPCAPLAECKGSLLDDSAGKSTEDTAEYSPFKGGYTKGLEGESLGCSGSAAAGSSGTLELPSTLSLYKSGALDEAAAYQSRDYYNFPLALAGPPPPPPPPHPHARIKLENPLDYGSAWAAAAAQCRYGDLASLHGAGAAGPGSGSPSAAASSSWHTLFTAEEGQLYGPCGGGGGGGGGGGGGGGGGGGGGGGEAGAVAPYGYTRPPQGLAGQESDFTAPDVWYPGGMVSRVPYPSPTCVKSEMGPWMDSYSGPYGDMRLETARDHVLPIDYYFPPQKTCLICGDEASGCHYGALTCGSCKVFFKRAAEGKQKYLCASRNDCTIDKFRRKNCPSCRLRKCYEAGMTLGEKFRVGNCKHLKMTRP
Excerpt: In addition, another mechanism by which resistance to existing treatments occurs is the expression of AR splicing variants (eg, AR-V7). The compounds of the present invention are excellent in reducing the expression of these variants (eg, AR-V7), and thus have a better anti-proliferative effect in AR-V7 positive prostate cancer cells. For example, the compounds of Examples 6 and 169 of the present disclosure inhibited the expression of AR-V7 by 87% and 48%, respectively, at a concentration of 100 nM.

[3] = biological target: T877A AR mutant (Homo sapiens, UniProt P10275, T878A); experiment: Degradation of AR mutant T877A; details: at a concentration of 100 nM
T877A AR mutant, sequence (P10275 whole entry T878A): as the sequence (P10275 whole entry T878A) above
T877A AR mutant, sequence (Q96SW2 whole entry partner): as the sequence (Q96SW2 whole entry partner) above
Excerpt: On the other hand, the compounds of the present invention have excellent degradation activity against AR mutants (T877A, M896V, F876L, H874Y, L702H, W741C, etc.). Since resistance to existing anti-androgen receptor drugs can be caused by AR mutation, the excellent AR mutant-degrading activity of the compounds of the present invention can help overcome resistance to existing drugs.

Row | Compound | inhibition at 0.01 µM [1] | inhibition at 0.1 µM [1] | inhibition at 1 µM [1] | inhibition at 10 µM [1] | inhibited the expression of AR-V7 [2] | degradation activity for the T877A AR mutant [3]
1 | N#Cc1ccc(N2CCC(C(=O)Nc3ccc(N4CCC(CN5CCN(CC6CCN(c7ccc8c(c7)C(=O)N(C7CCC(=O)NC7=O)C8=O)CC6)CC5)CC4)cn3)CC2)cc1C(F)(F)F (stereo not shown) [Example 6, 1-(4-cyano-3-(trifluoromethyl)phenyl)-N-(5-(4-((4-((1-(2-(2,6-dioxopiperidin-3-yl)-1,3-dioxoisoindolin-5-yl)piperidin-4-yl)methyl)piperazin-1-yl)methyl)piperidin-1-yl)pyridin-2-yl)piperidine-4-carboxamide] | 83% | 99% | 99% | 97% | 87% | 73%
2 | N#Cc1ccc(N2CCC(C(=O)Nc3ccc(N4CCC(CN5CC6(CCN(c7ccc8c(c7)C(=O)N(C7CCC(=O)NC7=O)C8=O)CC6)C5)CC4)cn3)CC2)cc1C(F)(F)F (stereo not shown) [Example 49, 1-(4-cyano-3-(trifluoromethyl)phenyl)-N-(5-(4-((7-(2-(2,6-dioxopiperidin-3-yl)-1,3-dioxoisoindolin-5-yl)-2,7-diazaspiro[3.5]nonan-2-yl)methyl)piperidin-1-yl)pyridin-2-yl)piperidine-4-carboxamide] | 68% | 98% | 99% | 99% |  | 46%
3 | N#Cc1ccc(N2CCC(C(=O)Nc3ccc(OC4CCN(CC5CCN(c6ccc7c(c6)C(=O)N(C6CCC(=O)NC6=O)C7=O)CC5)CC4)cn3)CC2)cc1C(F)(F)F (stereo not shown) [Example 169, 1-(4-cyano-3-(trifluoromethyl)phenyl)-N-(5-((1-((1-(2-(2,6-dioxopiperidin-3-yl)-1,3-dioxoisoindolin-5-yl)piperidin-4-yl)methyl)piperidin-4-yl)oxy)pyridin-2-yl)piperidine-4-carboxamide] | 85% | 99% | 99% |  | 48% | 
4 | N#Cc1ccc(N2CCC(C(=O)Nc3ccc(OCC4CN(CC5CCN(c6ccc7c(c6)C(=O)N(C6CCC(=O)NC6=O)C7=O)CC5)C4)cn3)CC2)cc1C(F)(F)F (stereo not shown) [Example 185, 1-(4-cyano-3-(trifluoromethyl)phenyl)-N-(5-((1-((1-(2-(2,6-dioxopiperidin-3-yl)-1,3-dioxoisoindolin-5-yl)piperidin-4-yl)methyl)azetidin-3-yl)methoxy)pyridin-2-yl)piperidine-4-carboxamide] | 85% | 97% | 99% |  |  | 
5 | CC1(COc2ccc(NC(=O)C3CCN(c4ccc(C#N)c(C(F)(F)F)c4)CC3)nc2)CN(CC2CCN(c3ccc4c(c3)C(=O)N(C3CCC(=O)NC3=O)C4=O)CC2)C1 (stereo not shown) [Example 186, 1-(4-cyano-3-(trifluoromethyl)phenyl)-N-(5-((1-((1-(2-(2,6-dioxopiperidin-3-yl)-1,3-dioxoisoindolin-5-yl)piperidin-4-yl)methyl)-3-methylazetidin-3-yl)methoxy)pyridin-2-yl)piperidine-4-carboxamide] | 66% | 94% | 96% |  |  | 
6 | N#Cc1ccc(N2CCC(C(=O)Nc3ccc(OC4CCN(CC5CCN(c6ccc7c(c6)C(=O)N(C6CCC(=O)NC6=O)C7=O)CC5)CC4)nn3)CC2)cc1C(F)(F)F (stereo not shown) [Example 187, 1-(4-cyano-3-(trifluoromethyl)phenyl)-N-(6-((1-((1-(2-(2,6-dioxopiperidin-3-yl)-1,3-dioxoisoindolin-5-yl)piperidin-4-yl)methyl)piperidin-4-yl)oxy)pyridazin-3-yl)piperidine-4-carboxamide] | 63% | 90% |  |  |  | 
7 | N#Cc1ccc(N2CCC(C(=O)Nc3ccc(CN4CCC(CN5CCN(c6cc7c(cc6F)C(=O)N(C6CCC(=O)NC6=O)C7=O)CC5)CC4)cn3)CC2)cc1C(F)(F)F (stereo not shown) [Example 188, 1-(4-cyano-3-(trifluoromethyl)phenyl)-N-(5-((4-((4-(2-(2,6-dioxopiperidin-3-yl)-6-fluoro-1,3-dioxoisoindolin-5-yl)piperazin-1-yl)methyl)piperidin-1-yl)methyl)pyridin-2-yl)piperidine-4-carboxamide] | 1% | 45% |  |  |  | 
8 | N#Cc1ccc(N2CCC(C(=O)Nc3ccc(CCN4CCC(CN5CCN(c6cc7c(cc6F)C(=O)N(C6CCC(=O)NC6=O)C7=O)CC5)CC4)cn3)CC2)cc1C(F)(F)F (stereo not shown) [Example 189, 1-(4-cyano-3-(trifluoromethyl)phenyl)-N-(5-(2-(4-((4-(2-(2,6-dioxopiperidin-3-yl)-6-fluoro-1,3-dioxoisoindolin-5-yl)piperazin-1-yl)methyl)piperidin-1-yl)ethyl)pyridin-2-yl)piperidine-4-carboxamide] | 8% | 79% |  |  |  | 
9 | N#Cc1ccc(N2CCC(C(=O)Nc3ccc(N4CC(CN5CCC(CN6CCN(c7ccc8c(c7)C(=O)N(C7CCC(=O)NC7=O)C8=O)CC6)CC5)C4)cn3)CC2)cc1C(F)(F)F (stereo not shown) [Example 190, 1-(4-cyano-3-(trifluoromethyl)phenyl)-N-(5-(3-((4-((4-(2-(2,6-dioxopiperidin-3-yl)-1,3-dioxoisoindolin-5-yl)piperazin-1-yl)methyl)piperidin-1-yl)methyl)azetidin-1-yl)pyridin-2-yl)piperidine-4-carboxamide] | -11% | 61% |  |  |  | 
10 | N#Cc1ccc(N2CCC(C(=O)Nc3ccc(N4CC(CN5CCC(CN6CCN(c7cc8c(cc7F)C(=O)N(C7CCC(=O)NC7=O)C8=O)CC6)CC5)C4)cn3)CC2)cc1C(F)(F)F (stereo not shown) [Example 191, 1-(4-cyano-3-(trifluoromethyl)phenyl)-N-(5-(3-((4-((4-(2-(2,6-dioxopiperidin-3-yl)-6-fluoro-1,3-dioxoisoindolin-5-yl)piperazin-1-yl)methyl)piperidin-1-yl)methyl)azetidin-1-yl)pyridin-2-yl)piperidine-4-carboxamide] | 3% | 84% |  |  |  | 
11 | N#Cc1ccc(N2CCC(C(=O)Nc3ccc(N4CCC(CCN5CCN(c6cc7c(cc6F)C(=O)N(C6CCC(=O)NC6=O)C7=O)CC5)CC4)cn3)CC2)cc1C(F)(F)F (stereo not shown) [Example 192, 1-(4-cyano-3-(trifluoromethyl)phenyl)-N-(5-(4-(2-(4-(2-(2,6-dioxopiperidin-3-yl)-6-fluoro-1,3-dioxoisoindolin-5-yl)piperazin-1-yl)ethyl)piperidin-1-yl)pyridin-2-yl)piperidine-4-carboxamide] | -11% | 15% | 67% |  |  | 
